Experimental data: US9999222B2, “Herbicidal combination comprising azines” (BASF SE, priority 2014, dated 2018)
Values joined by “and” are separate entries in the source; they are usually repeats but may differ in a detail not shown here. Equal entries are not always repeated. Where two headings read alike, the source gives them in different places.

Experiments:
Assay in all cases: Greenhouse test, pre-emergence treatment
[1] = tested on: LOLMU; assay type: in vivo, Lolium multiflorum; details: for observed % activity: 20 DAT
Text: (§1) The culture containers used were plastic flowerpots containing loamy sand with approximately 3.0% of humus as the substrate. The seeds of the test plants were sown separately for each species.
(§2) For the pre-emergence treatment, the active ingredients, which had been suspended or emulsified in water, were applied directly after sowing by means of finely distributing nozzles. The containers were irrigated gently to promote germination and growth and subsequently covered with transparent plastic hoods until the plants had rooted. This cover caused uniform germination of the test plants, unless this had been impaired by the active ingredients.
(§3) Depending on the species, the plants were kept at 10-25° C. or 20-35° C., respectively.
(§4) The test period extended over 2 to 4 weeks. During this time, the plants were tended, and their response to the individual treatments was evaluated.
(§5) Evaluation was carried out using a scale from 0 to 100. 100 means no emergence of the plants, or complete destruction of at least the aerial moieties, and 0 means no damage, or normal course of growth. A moderate herbicidal activity is given at values of at least 60, a good herbicidal activity is given at values of at least 70, and a very good herbicidal activity is given at values of at least 85.
(§6) The respective stated components a and b, and if appropriate, c were formulated as a 10% by weight strength emulsion concentrate and, with addition of the amount of solvent system, introduced into the spray liquor used for applying the active compound.
(§7) In the examples, the solvent used was water.
(§8) In the examples below, using the method of S. R. Colby (1967) “Calculating synergistic and antagonistic responses of herbicide combinations”, Weeds 15, p. 22ff., the value E, which is expected if the activity of the individual active compounds is only additive, was calculated. E=X+Y−(X·Y/100) where • X=percent activity using active compound a at an application rate A; • Y=percent activity using active compound b at an application rate B; • E=expected activity (in %) by a+b at application rates A+B.
(§9) If the value found experimentally is higher than the value E calculated according to Colby, a synergistic effect is present.

[2] = tested on: KCHSC; assay type: in vivo, Kochia scoparia; details: for observed % activity: 20 DAT; for inhibition at 31 g/ha: use rate 31 g ai/ha; for inhibition at 62 g/ha: use rate 62 g ai/ha
In short: (§10)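 Damage was rated on a 0-100 scale, with 100 meaning no emergence or full destruction of aerial parts. Observed combination effects were set against the additive Colby expectation E=X+Y−(X·Y/100). Spray liquor was water-based, from 10% emulsion concentrates, applied pre-emergence right after sowing in loamy sand (about 3.0% humus). Plants were held at 10-25 °C or 20-35 °C for 2 to 4 weeks.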

[3] = tested on: SORHA; assay type: in vivo, Sorghum halepense; details: 125 g ai/ha, 20 DAT
Text: as §1, §2, §3, §4, §5, §6, §7, §8, §9

[4] = tested on: ALOMY; assay type: in vivo, Alopecurus myosuroides
Text: as §1, §2, §3, §4, §5, §6, §7, §8, §9

[5] = tested on: POLCO; assay type: in vivo, Polygonum convolvulus; details: for observed % activity: 20 DAT; for inhibition at 62 g/ha: use rate 62 g ai/ha
In short: as §10

[6] = tested on: AVEFA; assay type: in vivo, Avena fatua; details: 250 g ai/ha, 20 DAT
Text: as §1, §2, §3, §4, §5, §6, §7, §8, §9

[7] = tested on: GALAP; assay type: in vivo, Galium aparine; details: 20 DAT
In short: as §10

[8] = tested on: PHACA; assay type: in vivo, Phalaris canariensis
Text: as §1, §2, §3, §4, §5, §6, §7, §8, §9

[9] = tested on: APESV; assay type: in vivo, Apera spica-venti; details: use rate 15.5 g ai/ha
Text: as §1, §2, §3, §4, §5, §6, §7, §8, §9

[10] = tested on: GERPU; assay type: in vivo, Geranium pusillum; details: pre-emergence, pre-emergence
In short: as §10

[11] = tested on: ECHCG; assay type: in vivo, Echinocloa crus-galli; details: Echinochloa crus-galli, 480 h, read-out: observed % activity 20 DAT
Text: as §1, §2, §3, §4, §5, §6, §7, §8, §9

[12] = tested on: SETFA; assay type: in vivo, Setaria faberi; details: for inhibition at 7.75 g/ha / inhibition at 15.5 g/ha: Setaria faberi, 480 h, read-out: observed % activity 20 DAT; for inhibition at 15.5 g/ha: use rate 15.5 g ai/ha
Text: as §1, §2, §3, §4, §5, §6, §7, §8, §9

[13] = tested on: VIOAR; assay type: in vivo, Viola arvensis; details: Viola arvensis, 480 h, read-out: observed % activity 20 DAT
Text: as §1, §2, §3, §4, §5, §6, §7, §8, §9

[14] = pre-emergence, use rate 7.75 g ai/ha
[15] = pre-emergence, use rate 15.5 g ai/ha
[16] = pre-emergence, use rate 31 g ai/ha
[17] = pre-emergence, use rate 62 g ai/ha
[18] = Bassia scoparia, pre-emergence, 480 h, KCHSC, pre-emergence, individual, read-out: observed % activity 20 DAT
[19] = Bassia scoparia, pre-emergence, 480 h, pre-emergence, read-out: observed % activity 20 DAT

COC[C@H](C)N(C(=O)CCl)c1c(C)csc1C [dimethenamid-P]
observed % activity ([1]; 125 g ai/ha): 95%
observed % activity ([1]; 250 g ai/ha): 95%
observed % activity ([2]; 125 g ai/ha): 40%
observed % activity ([2]; 250 g ai/ha): 85%
observed % activity [3]: 98%
observed % activity ([4]; 125 g ai/ha, 20 DAT): 45%
observed % activity ([5]; 125 g ai/ha): 55%
observed % activity ([5]; 250 g ai/ha): 50%
observed % activity [6]: 65%
observed % activity ([7]; 125 g ai/ha): 30%
observed % activity ([7]; 250 g ai/ha): 50%
observed % activity ([8]; 125 g ai/ha, 20 DAT): 80%

CC(C)(F)c1nc(N)nc(Nc2c(F)cccc2F)n1 [compound 10, N4-(2,6-difluorophenyl)-6-(1-fluoro-1-methyl-ethyl)-1,3,5-triazine-2,4-diamine]
inhibition at 15.5 g/ha ([9]; Apera spica-venti, 480 h, read-out: observed % activity 20 DAT): 95%
observed % activity 20 DAT [9]: 98%
inhibition at 15.5 g/ha ([10]; Geranium pusillum, 480 h, use rate 15.5 g ai/ha, read-out: observed % activity 20 DAT): 75%
observed % activity 20 DAT ([10]; use rate 7.75 g ai/ha): 50%
inhibition at 7.75 g/ha ([1]; Lolium multiflorum, pre-emergence, 480 h, LOLMU, pre-emergence, individual, use rate 7.75 g ai/ha, read-out: observed % activity 20 DAT): 30%
inhibition at 31 g/ha ([1]; Lolium multiflorum, pre-emergence, 480 h, LOLMU, pre-emergence, individual, use rate 31 g ai/ha, read-out: observed % activity 20 DAT): 70%
inhibition at 31 g/ha ([1]; Lolium multiflorum, pre-emergence, 480 h, pre-emergence, use rate 31 g ai/ha, read-out: observed % activity 20 DAT): 70%
inhibition at 62 g/ha ([1]; Lolium multiflorum, pre-emergence, 480 h, pre-emergence, use rate 62 g ai/ha, read-out: observed % activity 20 DAT): 90%
observed % activity 20 DAT [1, 14]: 15% and 20% and 0%
observed % activity 20 DAT [1, 15]: 35% and 50% and 25%
observed % activity 20 DAT [1, 16]: 80%
observed % activity 20 DAT [1, 17]: 85%
inhibition at 31 g/ha [2, 18]: 75%
inhibition at 62 g/ha [2, 18]: 90%
inhibition at 16.5 g/ha ([2]; Bassia scoparia, pre-emergence, 480 h, pre-emergence, use rate 16.5 g ai/ha, read-out: observed % activity 20 DAT): 65%
inhibition at 31 g/ha [2, 19]: 95%
inhibition at 62 g/ha [2, 19]: 90%
observed % activity 20 DAT [2, 14]: 85% and 55%
observed % activity 20 DAT [2, 15]: 85%
inhibition at 15.5 g/ha ([4]; Alopecurus myosuroides, pre-emergence, 480 h, ALOMY, pre-emergence, individual, use rate 15.5 g ai/ha, read-out: observed % activity 20 DAT): 65%
inhibition at 31 g/ha ([4]; Alopecurus myosuroides, pre-emergence, 480 h, ALOMY, pre-emergence, individual, use rate 31 g ai/ha, read-out: observed % activity 20 DAT): 90%
inhibition at 62 g/ha ([4]; Alopecurus myosuroides, pre-emergence, 480 h, ALOMY, pre-emergence, individual, use rate 62 g ai/ha, read-out: observed % activity 20 DAT): 90%
inhibition at 7.75 g/ha ([4]; Alopecurus myosuroides, pre-emergence, 480 h, pre-emergence, use rate 7.75 g ai/ha, read-out: observed % activity 20 DAT): 65%
inhibition at 31 g/ha ([4]; Alopecurus myosuroides, pre-emergence, 480 h, pre-emergence, use rate 31 g ai/ha, read-out: observed % activity 20 DAT): 90%
inhibition at 62 g/ha ([4]; Alopecurus myosuroides, pre-emergence, 480 h, pre-emergence, use rate 62 g ai/ha, read-out: observed % activity 20 DAT): 90%
observed % activity 20 DAT [4, 14]: 75%
observed % activity 20 DAT [4, 15]: 70% and 95%
observed % activity 20 DAT [4, 16]: 98%
observed % activity 20 DAT [4, 17]: 95% and 98%
inhibition at 62 g/ha ([5]; Fallopia convolvulus, pre-emergence, 480 h, POLCO, pre-emergence, individual, read-out: observed % activity 20 DAT): 95%
inhibition at 7.75 g/ha ([5]; Fallopia convolvulus, pre-emergence, 480 h, pre-emergence, use rate 7.75 g ai/ha, read-out: observed % activity 20 DAT): 70%
inhibition at 15.5 g/ha ([5]; Fallopia convolvulus, pre-emergence, 480 h, pre-emergence, use rate 15.5 g ai/ha, read-out: observed % activity 20 DAT): 90%
inhibition at 62 g/ha ([5]; Fallopia convolvulus, pre-emergence, 480 h, pre-emergence, read-out: observed % activity 20 DAT): 95%
observed % activity 20 DAT [5, 14]: 75%
inhibition at 7.75 g/ha ([11]; use rate 7.75 g ai/ha): 90%
inhibition at 15.5 g/ha ([11]; use rate 15.5 g ai/ha): 95%
inhibition at 7.75 g/ha ([12]; SETFA, individual, use rate 7.75 g ai/ha): 90%
inhibition at 15.5 g/ha ([12]; SETFA, individual): 98%
inhibition at 7.75 g/ha ([12]; use rate 7.75 g ai/ha): 75%
inhibition at 15.5 g/ha [12]: 95%
observed % activity 20 DAT ([12]; use rate 7.75 g ai/ha): 65%
inhibition at 7.75 g/ha ([13]; use rate 7.75 g ai/ha): 90%
inhibition at 15.5 g/ha ([13]; use rate 15.5 g ai/ha): 85%
inhibition at 31 g/ha ([8]; Phalaris canariensis, pre-emergence, 480 h, pre-emergence, use rate 31 g ai/ha, read-out: observed % activity 20 DAT): 80%
inhibition at 62 g/ha ([8]; Phalaris canariensis, pre-emergence, 480 h, pre-emergence, use rate 62 g ai/ha, read-out: observed % activity 20 DAT): 75%
observed % activity 20 DAT [8, 15]: 60%
observed % activity 20 DAT [8, 16]: 85%
observed % activity 20 DAT [8, 17]: 70%
